Tested on: pMEK in A549
Assay: CRAF A549 pMEK:tMEK
Type: cell-based, Human
Protocol: Materials and Methods: A549 or A375 cells were seeded in 6-well plates at an appropriate seeding density on day 0. On day 2 or 3, after checking the health and confluency of cells, the media was aspirated and replaced with 1 mL media containing a predetermined concentration of compound and incubated for 2 hours. After 2 hours, the media was aspirated, and the cells washed 2 times with cold PBS. Cells were lysed on ice, with 50 μL 1× CST lysis buffer+1 mM PMSF for 5 minutes. After 5 minutes, cells were removed using a scraper and transferred to cold 1.5 mL tubes, and centrifuged for 10 min, 4° C., 14,000×g. Supernatant was gently removed and snap frozen in liquid nitrogen. Protein concentration of the lysate was determined using Bradford Reagent (analyzed using SpectraMax M2E) and diluted to 1 mg/mL or pERK or 1.5 mg/mL for pMEK analysis. Cell lysates were then analyzed for phosphor-ERK/total-ERK levels on a Jess system (ProteinSimple; Cat #JS3346) using the following antibodies: tERK1/2 (CST 4696; 1:50) and pERK1/2 (CST 4377; 1:50). For pMEK/tMEK, the following antibodies were used: tMEK1/2 (CST 4694; 1:15) and pMEK1/2 (CST 9154; 1:400). All dilutions were in Milk-free antibody diluent.

Q: Which “CRAF A549 pMEK:tMEK [100 nM; 2 hr]” value does the source give for `CNS(=O)(=O)Nc1cccc(Cc2c(CN(C)C)c3ccc(OC(=O)N(C)C)cc3oc2=O)c1F` [Compound A, 4-((dimethylamino)methyl)-3-(2-fluoro-3-((N-methylsulfamoyl)amino)benzyl)-2-oxo-2H-chromen-7-yl dimethylcarbamate] here?
A: The value was 0.47.

Reference: patent publication US20260256738A1, “METHODS OF TREATING CANCER WITH A RAS MUTATION” (Immuneering Corporation, priority 2023, published 2026)
